Measured values from US9630952B2, “Crystalline forms of afatinib di-maleate” (IVAX INTERNATIONAL GMBH, priority 2014, dated 2017).
Each block holds one molecule with its values, some of them ahead of it.

Columns and labels:
Format in all cases: physicochemical
[1] = polymorphic stability under mechanical stress; details: exposed to mechanical stress (e.g. grinding, tabletting pressure); compared to Form A
Source text: As discussed above, crystalline form M of Afatinib di-maleate has advantages. […] As formulation processes often involve mechanical stress exerting technologies e.g. during grinding or under strong pressure in a tabletting machine, the polymorphic stability of API material is a desirable property.

wettability = details: compared to form A
Source text: As discussed above, crystalline form N of Afatinib di-maleate has some advantages. […] Wetting is the ability of a liquid (e.g. water) to maintain contact with a solid surface (e.g., API). It is a precursor to dissolution and so the wettability of a drug particle has a significant influence on the dissolution rates and the release characteristics in an oral pharmaceutical delivery. Wettability may also influence the interactions with other particles during formulation and manufacture. A polymorph with enhanced wettability ensures proper solubility measurement of the API per se and in formulation during dissolution experiments, i.e., better distribution of water and properly wetted sample.

[2] = competitive slurry experiment comparing thermodynamic stabilities of forms A and Alpha
Source text: As discussed above, crystalline form Alpha of Afatinib di-maleate has some advantages. […] Pharmaceutical molecules may display solid to solid phase transformations, transformations between polymorphs or between unsolvated and solvated form, which may be detected by competitive slurry experiments.

Compound: CN(C)C/C=C/C(=O)Nc1cc2c(Nc3ccc(F)c(Cl)c3)ncnc2cc1O[C@H]1CCOC1 [Form M, Afatinib di-maleate]
- polymorphic stability [1]: enhanced polymorphic stability compared to Form A

- wettability (wettability): better wettability over form A
Compound: CN(C)C/C=C/C(=O)Nc1cc2c(Nc3ccc(F)c(Cl)c3)ncnc2cc1O[C@H]1CCOC1 [Form N, Afatinib di-maleate]

- solid form resulting from competitive slurry of forms A and Alpha ([2]; in ethanol at room temperature, after about 67 hours): pure form Alpha
Compound: CN(C)C/C=C/C(=O)Nc1cc2c(Nc3ccc(F)c(Cl)c3)ncnc2cc1O[C@H]1CCOC1 [Form Alpha, Afatinib di-maleate]
- thermodynamic stability ([2]; concluded from competitive slurry in ethanol at room temperature, compared to form A): enhanced thermodynamic stability of form Alpha over form A
